pEC50: −log10 of the molar value.
molecular target: T1, human GPR119 (Homo sapiens, UniProt Q8TDV5); assay: Functional cellular assay measuring GPR119-mediated cAMP release (HTRF) in HEK-293 cells stably expressing recombinant human GPR119; type: cell-based; conditions: cAMP response, cell line expressing human GPR119, 30 minutes at room temperature
T1 construct: expressed in transfected cells
T1 sequence (Q8TDV5 1-335): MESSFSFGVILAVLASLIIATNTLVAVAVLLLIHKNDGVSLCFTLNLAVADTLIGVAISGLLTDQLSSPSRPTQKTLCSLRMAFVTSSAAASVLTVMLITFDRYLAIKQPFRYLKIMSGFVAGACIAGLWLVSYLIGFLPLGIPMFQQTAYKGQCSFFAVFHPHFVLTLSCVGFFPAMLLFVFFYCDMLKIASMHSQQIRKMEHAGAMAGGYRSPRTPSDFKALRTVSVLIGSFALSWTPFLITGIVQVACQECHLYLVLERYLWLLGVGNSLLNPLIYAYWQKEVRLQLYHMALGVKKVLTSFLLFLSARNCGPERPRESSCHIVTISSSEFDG
Procedure, shortened: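 HEK-293 cells stably expressing recombinant human GPR119, suspended at 400000 cells/mL in HBSS/20 mM HEPES/0.1% BSA/2 mM IBMX, exposed to compound for 30 minutes at room temperature. cAMP detected by HTRF (665/620 nm ratio) after 1 h with reagents in lysis buffer. EC50 taken as concentration giving 50% of maximal activation.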

| Compound | pEC50 |
| --- | --- |
| COC(=O)CNC(=O)CN1Cc2ccc(N3CC[C@@H](Oc4ccc(OCC5CC5)nc4)C3=O)cc2C1=O [Example 4-31, methyl 2-[[2-[6-[(3R)-3-[[6-(cyclopropylmethoxy)-3-pyridyl]oxy]-2-oxo-pyrrolidin-1-yl]-1-oxo-isoindolin-2-yl]acetyl]amino]acetate] | 6.82 |
| CN(C)C(=O)CN1Cc2ccc(N3CC[C@@H](Oc4ccc(CCC5CC5)nc4)C3=O)cc2C1=O [Example 2-04, 2-[6-[(3R)-3-[[6-(2-cyclopropylethyl)-3-pyridyl]oxy]-2-oxo-pyrrolidin-1-yl]-1-oxo-isoindolin-2-yl]-N,N-dimethyl-acetamide] | 6.81 |
| CCC(=O)c1ccc(O[C@@H]2CCN(c3ccc4c(c3)C(=O)N(CC(=O)N(C)C)C4)C2=O)cc1 [Example 2-11, N,N-dimethyl-2-[1-oxo-6-[(3R)-2-oxo-3-(4-propanoylphenoxy)pyrrolidin-1-yl]isoindolin-2-yl]acetamide] | 6.57 |
| CN(C)C(=O)CN1Cc2ccc(N3CC[C@@H](Oc4cnc(OCC5CC5)c(F)c4)C3=O)cc2C1=O [Example 2-06, 2-[6-[(3R)-3-[[6-(cyclopropylmethoxy)-5-fluoro-3-pyridyl]oxy]-2-oxo-pyrrolidin-1-yl]-1-oxo-isoindolin-2-yl]-N,N-dimethyl-acetamide] | 7.09 |
| CN(C)C(=O)CN1Cc2ccc(N3CC[C@@H](Oc4ccc(SC(F)(F)F)cc4)C3=O)cc2C1=O [Example 2-22, N,N-dimethyl-2-[1-oxo-6-[(3R)-2-oxo-3-[4-(trifluoromethylsulfanyl)phenoxy]pyrrolidin-1-yl]isoindolin-2-yl]acetamide] | 7.39 |
| CCCN1Cc2ccc(N3CC[C@@H](Oc4ccc(OCC5CC5)nc4)C3=O)cc2C1=O [Example 1-08, 6-[(3R)-3-[[6-(cyclopropylmethoxy)-3-pyridyl]oxy]-2-oxo-pyrrolidin-1-yl]-2-propyl-isoindolin-1-one] | 5.98 |
| CN(C)C(=O)CN1Cc2ccc(N3CC[C@@H](Oc4cnc(OCC5CC5)c(Br)c4)C3=O)cc2C1=O [Example 2-47, 2-[6-[(3R)-3-[[5-bromo-6-(cyclopropylmethoxy)-3-pyridyl]oxy]-2-oxo-pyrrolidin-1-yl]-1-oxo-isoindolin-2-yl]-N,N-dimethyl-acetamide] | 7.05 |
| O=C1OCCC1N1Cc2ccc(N3CC[C@@H](Oc4ccc(OCC5CC5)nc4)C3=O)cc2C1=O (stereo partly drawn) [Example 1-06, 6-[(3R)-3-[[6-(cyclopropylmethoxy)-3-pyridyl]oxy]-2-oxo-pyrrolidin-1-yl]-2-(2-oxotetrahydrofuran-3-yl)isoindolin-1-one] | 6.82 |
| CN(C)C(=O)CN1Cc2ccc(N3CC[C@@H](Oc4ccc(S(F)(F)(F)(F)F)cc4)C3=O)cc2C1=O [Example 2-27, N,N-dimethyl-2-[1-oxo-6-[(3R)-2-oxo-3-[4-(pentafluoro-λ{6}-sulfanyl)phenoxy]pyrrolidin-1-yl]isoindolin-2-yl]acetamide] | 6.80 |
| CCCCC(=O)c1ccc(O[C@@H]2CCN(c3ccc4c(c3)C(=O)N(CC(=O)N(C)C)C4)C2=O)cc1 [Example 2-12, N,N-dimethyl-2-[1-oxo-6-[(3R)-2-oxo-3-(4-pentanoylphenoxy)pyrrolidin-1-yl]isoindolin-2-yl]acetamide] | 7.36 |
| CCn1nnnc1-c1ccc(O[C@@H]2CCN(c3ccc4c(c3)C(=O)N(CC(=O)N(C)C)C4)C2=O)cc1 [Example 2-39, 2-[6-[(3R)-3-[4-(1-ethyltetrazol-5-yl)phenoxy]-2-oxo-pyrrolidin-1-yl]-1-oxo-isoindolin-2-yl]-N,N-dimethyl-acetamide] | 4.57 |
| C[S+]([O-])CN1Cc2ncc(N3CC[C@@H](Oc4ccc(OCC(F)(F)F)nc4)C3=O)cc2C1=O (stereo partly drawn) [Example 1-63, 6-(methylsulfinylmethyl)-3-[(3R)-2-oxo-3-[[6-(2,2,2-trifluoroethoxy)-3-pyridyl]oxy]pyrrolidin-1-yl]-7H-pyrrolo[3,4-b]pyridin-5-one] | 6.98 |
| CN(CCO)C(=O)CN1Cc2ccc(N3CC[C@@H](Oc4ccc(OCC5CC5)nc4)C3=O)cc2C1=O [Example 4-06, 2-[6-[(3R)-3-[[6-(cyclopropylmethoxy)-3-pyridyl]oxy]-2-oxo-pyrrolidin-1-yl]-1-oxo-isoindolin-2-yl]-N-(2-hydroxyethyl)-N-methyl-acetamide] | 6.55 |
| CN(C)C(=O)CN1Cc2ccc(N3CC[C@@H](Oc4ccc(O[C@@H]5C[C@@H]6C[C@@H]6C5)nc4)C3=O)cc2C1=O [Example 2-18, 2-[6-[(3R)-3-[[6-[[(1S,5R)-3-bicyclo[3.1.0]hexanyl]oxy]-3-pyridyl]oxy]-2-oxo-pyrrolidin-1-yl]-1-oxo-isoindolin-2-yl]-N,N-dimethyl-acetamide] | 7.13 |
| CN(C)C(=O)CN1Cc2ccc(N3CC[C@@H](Oc4ccc(OC5CC5)nc4)C3=O)cc2C1=O [Example 1-37, 2-[6-[(3R)-3-[[6-(cyclopropoxy)-3-pyridyl]oxy]-2-oxo-pyrrolidin-1-yl]-1-oxo-isoindolin-2-yl]-N,N-dimethyl-acetamide] | 5.98 |
| O=C(CN1Cc2ccc(N3CC[C@@H](Oc4ccc(OCC(F)(F)F)nc4)C3=O)cc2C1=O)N1CCCC1 [Example 4-40, 2-(2-oxo-2-pyrrolidin-1-yl-ethyl)-6-[(3R)-2-oxo-3-[[6-(2,2,2-trifluoroethoxy)-3-pyridyl]oxy]pyrrolidin-1-yl]isoindolin-1-one] | 7.37 |
| CN(C)C(=O)C1NC(=O)c2cc(N3CC[C@@H](Oc4ccc(OCC5CC5)nc4)C3=O)ccc2N1C (single isomer, unassigned) [Example 1-42] | 6.44 |
| CCOC(=O)CN1Cc2ccc(N3CC[C@@H](Oc4ccc(OCC5CC5)nc4)C3=O)cc2C1=O [Example 1-29, ethyl 2-[6-[(3R)-3-[[6-(cyclopropylmethoxy)-3-pyridyl]oxy]-2-oxo-pyrrolidin-1-yl]-1-oxo-isoindolin-2-yl]acetate] | 7.82 |
| CCOC(=O)CN1Cc2ccc(N3CC[C@@H](Oc4ccc(OCC(F)(F)F)nc4)C3=O)cc2C1=O [Example 1-64, ethyl 2-[1-oxo-6-[(3R)-2-oxo-3-[[6-(2,2,2-trifluoroethoxy)-3-pyridyl]oxy]pyrrolidin-1-yl]isoindolin-2-yl]acetate] | 7.57 |
| CN(C)C(=O)CN1Cc2ccc(N3CC[C@@H](Oc4ccc(-n5cnnc5)cc4)C3=O)cc2C1=O [Example 2-36, N,N-dimethyl-2-[1-oxo-6-[(3R)-2-oxo-3-[4-(1,2,4-triazol-4-yl)phenoxy]pyrrolidin-1-yl]isoindolin-2-yl]acetamide] | 4.48 |

Second part, the compound after the results:

| pEC50 | Compound |
| --- | --- |
| 7.52 | CS(=O)(=O)CN1Cc2c(F)cc(N3CC[C@@H](Oc4ccc(OCC5CC5)nc4)C3=O)cc2C1=O [Example 1-17, 6-[(3R)-3-[[6-(cyclopropylmethoxy)-3-pyridyl]oxy]-2-oxo-pyrrolidin-1-yl]-4-fluoro-2-(methylsulfonylmethyl)isoindolin-1-one] |
| 6.16 | CN1Cc2c(F)cc(N3CC[C@@H](Oc4ccc(OCC5CC5)nc4)C3=O)cc2C1=O [Example 1-23, 6-[(3R)-3-[[6-(cyclopropylmethoxy)-3-pyridyl]oxy]-2-oxo-pyrrolidin-1-yl]-4-fluoro-2-methyl-isoindolin-1-one] |
| 7.15 | C[S+]([O-])CN1Cc2c(F)cc(N3CC[C@@H](Oc4ccc(OCC5CC5)nc4)C3=O)cc2C1=O (stereo partly drawn) [Example 1-19, 6-[(3R)-3-[[6-(cyclopropylmethoxy)-3-pyridyl]oxy]-2-oxo-pyrrolidin-1-yl]-4-fluoro-2-(methylsulfinylmethyl)isoindolin-1-one] |
| 7.46 | CN(C)C(=O)CN1Cc2c(F)cc(N3CC[C@@H](Oc4ccc(OCC5CCC5)nc4)C3=O)cc2C1=O [Example 6-04, 2-[6-[(3R)-3-[[6-(cyclobutylmethoxy)-3-pyridyl]oxy]-2-oxo-pyrrolidin-1-yl]-4-fluoro-1-oxo-isoindolin-2-yl]-N,N-dimethyl-acetamide] |
| 5.91 | CN1Cc2c(F)cc(N3CC[C@@H](Oc4ccc(OCCC5CC5)nc4)C3=O)cc2C1=O [Example 5-04, 6-[(3R)-3-[[6-(2-cyclopropylethoxy)-3-pyridyl]oxy]-2-oxo-pyrrolidin-1-yl]-4-fluoro-2-methyl-isoindolin-1-one] |
| 6.80 | COCCNC(=O)CN1Cc2c(F)cc(N3CC[C@@H](Oc4ccc(OCC5CC5)nc4)C3=O)cc2C1=O [Example 4-23, 2-[6-[(3R)-3-[[6-(cyclopropylmethoxy)-3-pyridyl]oxy]-2-oxo-pyrrolidin-1-yl]-4-fluoro-1-oxo-isoindolin-2-yl]-N-(2-methoxyethyl)acetamide] |
| 7.72 | COC(=O)CN1Cc2c(F)cc(N3CC[C@@H](Oc4ccc(OCCC5CC5)nc4)C3=O)cc2C1=O [Example 1-35, methyl 2-[6-[(3R)-3-[[6-(2-cyclopropylethoxy)-3-pyridyl]oxy]-2-oxo-pyrrolidin-1-yl]-4-fluoro-1-oxo-isoindolin-2-yl]acetate] |
| 6.54 | CCOc1ccc(O[C@@H]2CCN(c3cc(F)c4c(c3)C(=O)N(CC(=O)N(CC)CC)C4)C2=O)cn1 [Example 4-14, 2-[6-[(3R)-3-[(6-ethoxy-3-pyridyl)oxy]-2-oxo-pyrrolidin-1-yl]-4-fluoro-1-oxo-isoindolin-2-yl]-N,N-diethyl-acetamide] |
| 6.72 | CCOc1ccc(O[C@@H]2CCN(c3cc(F)c4c(c3)C(=O)N(CC(=O)N3CCCC3)C4)C2=O)cn1 [Example 4-17, 6-[(3R)-3-[(6-ethoxy-3-pyridyl)oxy]-2-oxo-pyrrolidin-1-yl]-4-fluoro-2-(2-oxo-2-pyrrolidin-1-yl-ethyl)isoindolin-1-one] |

Reference: patent publication US9908868B2, “Isoindolinone compounds as GPR119 modulators for the treatment of diabetes, obesity, dyslipidemia and related disorders” (SANOFI, priority 2014, dated 2018)
